Measured values reported in ChEMBL document CHEMBL2016501, “Design, synthesis, and biological activity of novel 1,4-disubstituted piperidine/piperazine derivatives as CCR5 antagonist-based HIV-1 entry inhibitors” (Bioorg Med Chem Lett, 2012).

Legend:
[1] = system: Human immunodeficiency virus 1; assay: Antiviral activity against HIV1; format: functional, organism-based
[2] = Selectivity ratio of CC50 for human CEMx174 5.25M7 cells to IC50 for HIV1 Bal infected in CEMx174 5.25M7 cells; format: ADME, cell-based; settings: read-out: Ratio CC50/IC50
[3] = system: Human immunodeficiency virus 1; assay: Antiviral against R5 tropic HIV1 Bal infected in human CEMx174 5.25M7 cells assessed as inhibition of viral replication; format: functional, organism-based; settings: Human immunodeficiency virus 1, Bal
[4] = Cytotoxicity against human CEMx174 5.25M7; settings: CEMx174 5.25M7 cells
[5] = Solubility of the compound in 10 mM phosphate sodium buffer at pH 7.4 at 25 degC; format: physicochemical
hERG = assay: Selectivity ratio of IC50 for human Erg to IC50 for HIV1 Bal infected in human CEMx174 5.25 cells; format: ADME, cell-based; settings: HIV1 Bal infected CEMx174 5.25 cells, read-out: Ratio IC50
[6] = Oral bioavailability in Sprague-Dawley rat at 5 mg/kg; format: ADME, organism-based; settings: in vivo
[7] = Terminal half life in Sprague-Dawley rat at 1 mg/kg, iv; format: ADME, organism-based; set-up: dose 1 mg/kg, route intravenous; settings: in vivo, read-out: beta t1/2 (converted)
[8] = AUC (0 to 12 hrs) in Sprague-Dawley rat at 5 mg/kg, po; format: ADME, organism-based; set-up: time < 12 hr, dose 5 mg/kg, route oral; settings: plasma
[9] = target: Voltage-gated inwardly rectifying potassium channel KCNH2 (Homo sapiens, UniProt Q12809); assay: Inhibition of human Erg expressed in HEK293 cells by whole cell patch clamp assay; format: cell-based
Chain of Voltage-gated inwardly rectifying potassium channel KCNH2 (Q12809 whole entry): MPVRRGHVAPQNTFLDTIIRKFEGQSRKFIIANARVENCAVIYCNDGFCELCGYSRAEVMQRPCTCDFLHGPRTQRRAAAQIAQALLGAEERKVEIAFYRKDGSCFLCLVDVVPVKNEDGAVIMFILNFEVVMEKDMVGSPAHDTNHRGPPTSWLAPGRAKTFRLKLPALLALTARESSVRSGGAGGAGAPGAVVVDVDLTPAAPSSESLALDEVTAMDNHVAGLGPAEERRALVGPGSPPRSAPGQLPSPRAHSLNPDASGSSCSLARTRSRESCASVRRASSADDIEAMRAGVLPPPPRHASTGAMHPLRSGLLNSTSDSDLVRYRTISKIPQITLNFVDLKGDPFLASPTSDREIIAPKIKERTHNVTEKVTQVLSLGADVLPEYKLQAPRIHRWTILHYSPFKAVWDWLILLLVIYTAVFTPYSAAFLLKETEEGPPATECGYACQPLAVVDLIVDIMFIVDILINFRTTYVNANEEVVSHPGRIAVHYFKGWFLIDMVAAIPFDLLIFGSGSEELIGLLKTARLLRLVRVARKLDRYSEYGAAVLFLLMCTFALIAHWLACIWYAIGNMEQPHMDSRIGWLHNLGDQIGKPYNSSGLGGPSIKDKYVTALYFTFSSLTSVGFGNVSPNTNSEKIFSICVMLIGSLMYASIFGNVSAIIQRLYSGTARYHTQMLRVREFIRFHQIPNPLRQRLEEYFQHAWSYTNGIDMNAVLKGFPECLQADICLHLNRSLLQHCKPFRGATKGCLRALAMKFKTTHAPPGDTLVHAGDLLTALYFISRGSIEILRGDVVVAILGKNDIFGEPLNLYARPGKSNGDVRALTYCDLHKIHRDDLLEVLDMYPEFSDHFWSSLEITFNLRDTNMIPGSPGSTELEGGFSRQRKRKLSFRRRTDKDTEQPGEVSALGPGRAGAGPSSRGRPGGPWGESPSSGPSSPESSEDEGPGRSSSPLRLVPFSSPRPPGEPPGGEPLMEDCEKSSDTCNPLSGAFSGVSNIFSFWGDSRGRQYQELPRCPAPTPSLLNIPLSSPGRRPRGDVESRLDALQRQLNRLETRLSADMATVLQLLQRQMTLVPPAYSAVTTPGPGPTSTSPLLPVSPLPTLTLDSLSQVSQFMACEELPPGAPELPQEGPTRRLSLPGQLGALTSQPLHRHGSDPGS

[10] = AUC (0 to 12 hrs) in Sprague-Dawley rat at 1 mg/kg, iv; format: ADME, organism-based; set-up: time < 12 hr, dose 1 mg/kg, route intravenous; settings: plasma
[11] = Terminal half life in Sprague-Dawley rat at 5 mg/kg, po; format: ADME, organism-based; set-up: dose 5 mg/kg, route oral; settings: in vivo, read-out: beta t1/2 (converted)

Compound | IC50 [3] | selectivity ratio [2] | CC50 [4] | further results
CC(=O)N1CCC(C(=O)N(CCCN2CC3CN(C(=O)c4c(C)ncnc4C)CC3C2)c2ccc(C)c(Cl)c2)CC1 (configuration not stated) | – | – | – | EC50 [1]: 2.7 nM
CC(=O)N1CCC(C(=O)N(CCCN2CCC(Oc3ccccc3)CC2)c2ccc(C)c(Cl)c2)CC1 | 52.3 nM | > 1080 | > 56600 nM | –
CCN(C(=O)Cc1ccccc1)C1CCN(CCCN(C(=O)C2CCN(C(C)=O)CC2)c2ccc(C)c(Cl)c2)CC1.Cl | 5.23 nM | 6920 | 36200 nM | solubility [5]: < 2000 µg/mL; EC50 [1]: 2.5 nM
CC(=O)N1CCC(C(=O)N(CCCN2CCN(c3ccccn3)CC2)c2ccc(C)c(Cl)c2)CC1 | 56.3 nM | > 1040 | > 58300 nM | –
CC(=O)N1CCC(C(=O)N(CCCN2CCN(Cc3ccc(C(F)(F)F)cc3)CC2)c2ccc(C)c(Cl)c2)CC1 | 1.85 nM | 16500 | 30500 nM | –
CC(=O)N1CCC(C(=O)N(CCCN2CCN(Cc3ccc(C#N)cc3)CC2)c2ccc(C)c(Cl)c2)CC1 | 9.01 nM | > 11100 | > 100000 nM | –
CC(=O)N1CCC(C(=O)N(CCCN2CCN(Cc3ccc(Cl)nc3)CC2)c2ccc(C)c(Cl)c2)CC1 | 3.63 nM | > 14500 | > 53100 nM | –
CCN(Cc1ccccc1)C(=O)C1CCN(CCCN(C(=O)C2CCN(C(C)=O)CC2)c2ccc(C)c(Cl)c2)CC1 | 59.9 nM | 1400 | 83800 nM | –
CC(=O)N1CCC(C(=O)N(CCCN2CCC(Cc3ccc(C(N)=O)cc3)CC2)c2ccc(C)c(Cl)c2)CC1.Cl | 2.48 nM | > 40300 | > 100000 nM | bioavailability [6]: 1.4%; half-life [7]: 2.25 h; solubility [5]: 2000 µg/mL; AUC(0-t) at 12 h [8]: 22.7 ng·h/mL; AUC(0-t) at 12 h [10]: 328 ng·h/mL; half-life [11]: 4.25 h
CC(=O)N1CCC(C(=O)N(CCCN2CCC(CNc3ncccn3)CC2)c2ccc(C)c(Cl)c2)CC1 | 10.2 nM | > 5330 | > 55100 nM | –
CC(=O)N1CCC(C(=O)N(CCCN2CCN(Cc3ccc(Cl)cc3)CC2)c2ccc(C)c(Cl)c2)CC1 | 6.56 nM | 5730 | 37600 nM | –
CC(=O)N1CCC(C(=O)N(CCCN2CCN(Cc3cccnc3)CC2)c2ccc(C)c(Cl)c2)CC1 | 32.7 nM | > 1740 | > 56700 nM | –

Continued by falling IC50 [3], values first:

IC50 [3] | Compound | selectivity ratio [2] | CC50 [4] | further results
1830 nM | CC(=O)N1CCC(C(=O)N(CCCN2CCC(CNc3cc(C)ccn3)CC2)c2ccc(C)c(Cl)c2)CC1 | 10 | 17900 nM | –
147 nM | CC(=O)N1CCC(C(=O)N(CCCN2CCN(C(=O)c3ccccc3)CC2)c2ccc(C)c(Cl)c2)CC1 | 663 | 97800 nM | –
87.5 nM | CC(=O)N1CCC(C(=O)N(CCCN2CCC(CNC(=O)c3ccsc3)CC2)c2ccc(C)c(Cl)c2)CC1 | > 593 | > 51900 nM | –
20.3 nM | CC(=O)N1CCC(C(=O)N(CCCN2CCC(CNC(=O)c3cnccn3)CC2)c2ccc(C)c(Cl)c2)CC1 | > 2580 | > 52400 nM | –
14.9 nM | CC(=O)N1CCC(C(=O)N(CCCN2CCN(Cc3ccccc3)CC2)c2ccc(C)c(Cl)c2)CC1 | 6800 | 101000 nM | –
11.6 nM | CC(=O)N1CCC(C(=O)N(CCCN2CCN(Cc3cnc(Cl)s3)CC2)c2ccc(C)c(Cl)c2)CC1 | > 4510 | > 52400 nM | –
9.07 nM | CC(=O)N1CCC(C(=O)N(CCCN2CCN(Cc3ccncc3)CC2)c2ccc(C)c(Cl)c2)CC1 | > 6150 | > 56700 nM | –
6.17 nM | CC(=O)N1CCC(C(=O)N(CCCN2CCN(Cc3ccc(F)cc3)CC2)c2ccc(C)c(Cl)c2)CC1.Cl | > 16200 | > 100000 nM | selectivity ratio (hERG): 295; bioavailability [6]: 56%; half-life [7]: 0.59 h; solubility [5]: 25000 µg/mL; AUC(0-t) at 12 h [8]: 587 ng·h/mL; IC50 [9]: 1820 nM; AUC(0-t) at 12 h [10]: 209 ng·h/mL; half-life [11]: 0.76 h
3.99 nM | CC(=O)N1CCC(C(=O)N(CCCN2CCN(Cc3ccc(S(C)(=O)=O)cc3)CC2)c2ccc(C)c(Cl)c2)CC1 | > 12100 | > 49300 nM | –
